In patent US20260184663A1, “INDENE COMPOUNDS, PHARMACEUTICAL COMPOSITIONS THEREOF, AND THEIR THERAPEUTIC APPLICATIONS” (NucMito Pharmaceuticals co. Ltd., priority 2022, published 2026):
Where two headings read alike, the source gives them in different places.

Columns and labels:
Type in all cases: cell-based
[1] = system: A549 (lung adenocarcinoma); assay: Antiproliferative activity (CCK-8 cell viability), A549; settings: Homo sapiens, 72 h; for inhibition at 3.3 µM: Compound concentration: 3.3 μM; for inhibition at 10 µM: Compound concentration: 10 μM; for inhibition at 30 µM: Compound concentration: 30 μM
Procedure, shortened: (§1)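 Cells were seeded at 2,000-5,000/well (HeLa in MEM, HepG2 and SW480 in DMEM, A549 in F-12K, all with 10% FBS) and treated with compound at 3.3, 10 or 30 μM for 72 h at 37° C. CCK-8 was added for 4 h, absorbance was read at 450 nm, and viability was expressed relative to DMSO-treated wells.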

[2] = system: B16F10 (malignant melanoma); assay: Antiproliferative activity (CCK-8 cell viability), B16F10; settings: Mus musculus, 72 h; for inhibition at 3.3 µM: B16-F10, Compound concentration: 3.3 μM; for inhibition at 10 µM: B16-F10, Compound concentration: 10 μM; for inhibition at 30 µM: B16-F10, Compound concentration: 30 μM
Procedure, shortened: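 Attached B16F10 cells in 96-well plates were incubated with compound at 37° C for 72 h, followed by 10 μL CCK-8 reagent per well and a further 4 h incubation. A multi-well plate reader measured absorbance at 450 nm. Percent viability across replicates was calculated against DMSO vehicle-treated cells.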

[3] = system: MDA-MB-231 (breast cancer); assay: Antiproliferative activity (CCK-8 cell viability), MDA-MB-231; settings: Homo sapiens, 72 h; for inhibition at 3.3 µM: Compound concentration: 3.3 μM; for inhibition at 10 µM: Compound concentration: 10 μM; for inhibition at 30 µM: Compound concentration: 30 μM
Procedure, shortened: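 In this CCK-8 viability assay, MDA-MB-231 cells maintained in Dulbecco's modified Eagle's medium containing 10% fetal bovine serum were placed in 96-well plates (2,000-5,000 cells/well) and treated with compound for 72 h at 37° C. A 4 h incubation with 10 μL CCK-8 followed, plates were read at 450 nm, and viability was expressed against DMSO vehicle wells across replicates.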

HepG2 (liver cancer) = assay: Antiproliferative activity (CCK-8 cell viability), HepG2; settings: Homo sapiens, 72 h; for inhibition at 3.3 µM: Compound concentration: 3.3 μM; for inhibition at 10 µM: Compound concentration: 10 μM; for inhibition at 30 µM: Compound concentration: 30 μM
Procedure, shortened: as §1

HeLa (cervical cancer) = assay: Antiproliferative activity (CCK-8 cell viability), HeLa; settings: Homo sapiens, 72 h, read-out: Antiproliferative activity in cancerous cells, HELA (inhibition of cell growth); for inhibition at 3.3 µM: Compound concentration: 3.3 μM; for inhibition at 10 µM: Compound concentration: 10 μM
Procedure, shortened: as §1

SW480 (colon cancer) = assay: Antiproliferative activity (CCK-8 cell viability), SW480; settings: Homo sapiens, 72 h; for inhibition at 3.3 µM: Compound concentration: 3.3 μM; for inhibition at 10 µM: Compound concentration: 10 μM; for inhibition at 30 µM: Compound concentration: 30 μM
Procedure, shortened: as §1

[4] = system: A431 (epidermoid carcinoma); assay: Antiproliferative activity (CCK-8 cell viability), A431; settings: Homo sapiens, 72 h; for inhibition at 3.3 µM: A-431, Compound concentration: 3.3 μM; for inhibition at 10 µM: A-431, Compound concentration: 10 μM; for inhibition at 30 µM: A-431, Compound concentration: 30 μM
Procedure, shortened: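 Cell viability of compound-treated A431 cells was measured with a Cell Counting Kit-8. Each well received 10 μL of CCK-8 after 72 h of compound exposure, followed by 4 h incubation at 37° C. and a 450 nm plate-reader measurement. Percent viability was calculated relative to DMSO controls across replicates.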

[5] = read-out: Antiproliferative activity in cancerous cells, A549 (inhibition of cell growth)
[6] = read-out: Antiproliferative activity in cancerous cells, B16F10 (inhibition of cell growth)
[7] = read-out: Antiproliferative activity in cancerous cells, MDA-MB-231 (inhibition of cell growth)
[8] = read-out: Antiproliferative activity in cancerous cells, HepG2 (inhibition of cell growth)
[9] = read-out: Antiproliferative activity in cancerous cells, SW480 (inhibition of cell growth)
[10] = read-out: Antiproliferative activity in cancerous cells, A431 (inhibition of cell growth)

| SMILES | inhibition at 3.3 µM [1, 5] [%] | inhibition at 10 µM [1, 5] [%] | inhibition at 3.3 µM [2, 6] [%] | inhibition at 10 µM [2, 6] [%] | inhibition at 3.3 µM [3, 7] [%] | inhibition at 10 µM [3, 7] [%] | inhibition at 3.3 µM (HepG2 (liver cancer); [8]) [%] | inhibition at 10 µM (HepG2 (liver cancer); [8]) [%] | inhibition at 3.3 µM (HeLa (cervical cancer)) [%] | inhibition at 10 µM (HeLa (cervical cancer)) [%] | inhibition at 3.3 µM (SW480 (colon cancer); [9]) [%] | inhibition at 10 µM (SW480 (colon cancer); [9]) [%] | inhibition at 3.3 µM [4, 10] [%] | inhibition at 10 µM [4, 10] [%] | also measured |
| --- | --- | --- | --- | --- | --- | --- | --- | --- | --- | --- | --- | --- | --- | --- | --- |
| CC1=C(CC(=O)O)c2cc(Br)ccc2/C1=C\c1cccc(Oc2ccccc2)c1 [C110, (Z)-2-(5-Bromo-2-methyl-1-(3-phenoxybenzylidene)-1H-inden-3-yl)acetic acid] | < 30 | ≥ 50 | ≥ 50 | ≥ 50 | < 30 | ≥ 50 | < 30 | ≥ 50 | < 30 | ≥ 50 | < 30 | 30 to 50 | < 30 | ≥ 50 |  |
| CC1=C(CC(=O)O)c2cc(F)ccc2/C1=C/c1ccc(Oc2ccc(Cl)cc2)cc1 [E42, (E)-2-(1-(4-(4-Chlorophenoxy)benzylidene)-5-fluoro-2-methyl-1H-inden-3-yl)acetic acid] | < 30 | 30 to 50 | < 30 | 30 to 50 | < 30 | < 30 | < 30 | 30 to 50 | 30 to 50 | ≥ 50 | 30 to 50 | ≥ 50 | ≥ 50 | ≥ 50 | inhibition at 30 µM [1, 5]: ≥ 50%; inhibition at 30 µM [2, 6]: ≥ 50%; inhibition at 30 µM [3, 7]: ≥ 50%; inhibition at 30 µM (HepG2 (liver cancer); [8]): ≥ 50%; inhibition at 30 µM (HeLa (cervical cancer); Compound concentration: 30 μM): ≥ 50%; inhibition at 30 µM (SW480 (colon cancer); [9]): ≥ 50%; inhibition at 30 µM [4, 10]: ≥ 50% |
| CC1=C(CC(=O)O)c2cc(F)ccc2/C1=C\c1cccc(Oc2ccc(Br)cc2)c1 [C97, (Z)-2-(1-(3-(4-Bromophenoxy)benzylidene)-5-fluoro-2-methyl-1H-inden-3-yl)acetic acid] | < 30 | 30 to 50 | 30 to 50 | ≥ 50 | < 30 | < 30 | < 30 | ≥ 50 | < 30 | ≥ 50 | < 30 | < 30 | < 30 | < 30 |  |
| CC1=C(CC(=O)O)c2cc(Br)ccc2/C1=C\c1ccc(Oc2ccc(F)cc2)cc1 [C86, (Z)-2-(5-Bromo-1-(4-(4-fluorophenoxy)benzylidene)-2-methyl-1H-inden-3-yl)acetic acid] | < 30 | < 30 | < 30 | 30 to 50 | < 30 | < 30 | < 30 | < 30 | < 30 | < 30 | < 30 | < 30 | 30 to 50 | 30 to 50 | inhibition at 30 µM ([1]; read-out: Antiproliferative activity in cancerous cells, A549): < 30%; inhibition at 30 µM ([2]; read-out: Antiproliferative activity in cancerous cells, B16F10): 30 to 50%; inhibition at 30 µM ([3]; read-out: Antiproliferative activity in cancerous cells, MDA-MB-231): < 30%; inhibition at 30 µM (HepG2 (liver cancer); read-out: Antiproliferative activity in cancerous cells, HepG2): < 30%; inhibition at 30 µM (SW480 (colon cancer); read-out: Antiproliferative activity in cancerous cells, SW480): < 30%; inhibition at 30 µM ([4]; read-out: Antiproliferative activity in cancerous cells, A431): 30 to 50% |
| CC1=C(CC(=O)O)c2cc(Cl)ccc2/C1=C\c1cccc(Oc2ccc(C#N)cc2)c1 [C94, (Z)-2-(5-Chloro-1-(3-(4-cyanophenoxy)benzylidene)-2-methyl-1H-inden-3-yl)acetic acid] | < 30 | ≥ 50 | 30 to 50 | 30 to 50 | < 30 | 30 to 50 | < 30 | ≥ 50 | < 30 | ≥ 50 | < 30 | < 30 | ≥ 50 | ≥ 50 |  |
